From US20240374626A1, “METHODS OF ENHANCING MILK PRODUCTION IN LACTATING MAMMALIAN SUBJECTS” (priority 2023, published 2024)

System: HC11 cells
Experiment: FACS DNA content analysis of HC11 cells during lactogenic differentiation
Assay type: cell-based, mouse
Settings: HC11, doxorubicin 50 nM
Experimental: The HC11 cell line was obtained from American Type Culture Collection (ATCC) and routinely checked for mycoplasma (Mycoplasma PCR kit, ABM, G238). Undifferentiated HC11 cells were cultured in growing medium (RPMI-1640; Thermo Fisher Scientific, 72400047), supplemented with 10% FBS, 5 μg/ml insulin (Millipore-Sigma, 16634), 10 ng/ml epidermal growth factor (EGF; Preprotech, AF-100-15) and 1× AntiAnti (Thermo Fisher Scientific, 15240112) at 37° C. with 5% CO2. Cells were grown to confluency and maintained in growing medium for 2 days, until they became competent. Competent HC11 cells were primed for differentiation by culturing them in priming medium [RPMI-1640 supplemented with 5 μg/ml insulin, 1 μM dexamethasone (Millipore-Sigma, D4902-1 G) and 1× Anti-Anti] for 24 h at 37° C. with 5% CO2. To induce differentiation, primed HC11 cells were cultured in DIP Medium [RPMI-1640, supplemented with 10% FBS, 5 μg/ml insulin, 1 μM dexamethasone, 1× anti-anti and 3 μg/ml Prolactin (NHPP, oPRL-21)] at 37° C. with 5% CO2.
[…] Drugs were maintained through the differentiation process and added with every change of media.
For DNA content analysis of the mammary gland CK8^+ epithelial population, mammary gland cells suspension was obtained as described above. Cells were fixed in ice-cold 70% EtOH at a final concentration of 10^6 cells/ml. During fixation, cells were vigorously vortexed for 1 min to avoid the formation of cell aggregates. Cells were washed twice with washing buffer [1×PBS containing 5% FBS and 0.5% tween 20 (Fisher Chemical, BP337500)] and centrifuged at 2,000 rpm for 5 min at 4° C. Cell pellet was incubated for 1 h at room temperature with anti-CK8 (Developmental Studies Hybridoma Lab, TROMA-1), anti-GFP (Thermo Fisher, A01704) or corresponding rat (Thermo-Fisher, 10700) or rabbit (Thermo-Fisher, 10500C) IgG isotype controls. Cells were washed twice and incubated for 1 h at room temperature in darkness with FITC anti-Rat (Thermo Fisher, A24544) or FITC anti-Rabbit (Thermo Fisher, A16030) and APC anti-Rat (Jackson ImmunoResearch, 712-136-153). Cells were washed twice and resuspended in propidium iodide solution [1×PBS containing 25 μg/ml of propidium iodide (Thermo Fisher, P3566) and 100 μg/ml of RNAse (Thermo Fisher, 12091021)]. For DNA content analysis on HC11, cells were washed with 1×DPBS (GIBCO, 14190-250) and harvested using 0.05% Trypsin-EDTA (GIBCO, 25300-062). Cell suspension was washed with 1×DPBS and centrifuged at 1,000 rpm for 5 min at 4° C. Cell pellet was fixed in ice-cold 70% EtOH and then vortexed vigorously to avoid cell aggregates. After fixation, cells were washed with washing buffer [1×PBS (GIBCO, 14190136) supplemented with 5% FBS] and centrifuged at 2,000 rpm for 5 min at 4° C. The pellet was resuspended in propidium iodide solution. Cell suspensions were filtered through a 70 μm cell strainer (Falcon, 08-771-2) and analyzed using a BD LSRII cytometer or a BD FACS Aria II Cell Sorter. Populations were analyzed using FlowJo.

COc1cccc2c1C(=O)c1c(O)c3c(c(O)c1C2=O)C[C@@](O)(C(=O)CO)C[C@@H]3O[C@H]1C[C@H](N)[C@H](O)[C@H](C)O1 [doxorubicin]
polyploidization (FACS DNA content) (DIP3): increase in polyploidization
proportion of tetraploid cells (FACS DNA content) (after 24 h): increases
